Source: patent US20250051356A1, “RIFABUTIN ANALOGS FOR THE TREATMENT OF DISEASE” (priority 2021, published 2025)
≈ marks a conversion by molar mass, not a printed value. Like-named read-outs stand apart in the source and are kept apart here.

Assays:
Assay type in all cases: cell-based
[1] = system: M. abscessus subsp. abscessus ATCC 19977; test: MIC against M. abscessus in Middlebrook 7H9 + ADC; details: Mycobacteroides abscessus
[2] = system: A. baumannii (HUMC1 strain); test: MIC by broth microdilution against A. baumannii in RPMI + 10% FCS; details: Acinetobacter baumannii, read-out: MIC A. baumannii
[3] = system: S. aureus (UAMS-1625 strain); test: MIC by broth microdilution against S. aureus; details: Staphylococcus aureus, read-out: MIC S. aureus
[4] = ATCC19977, ATCC 19977, 7H9 + ADC, read-out: MIC M. abscessus

## CO[C@H]1/C=C/O[C@@]2(C)Oc3c(C)c(O)c4c(c3C2=O)C2=NC3(CCN(CC(C)C)CC3)NC2=C(NC(=O)/C(C)=C\C=C\[C@H](C)[C@H](O)[C@@H](C)[C@@H](O)[C@@H](C)[C@H](OC(=O)CC(=O)OCC(C)C)[C@@H]1C)C4=O [Compound 27]
[1]; [4]
  MIC: 4 µg/mL
[2]; HUMC1 strain, RPMI + 10% FCS
  MIC: 0.016 µg/mL
[3]
  MIC: 0.125 µg/mL (≈ 0.132 µM)

## CO[C@H]1/C=C/O[C@@]2(C)Oc3c(C)c(O)c4c(c3C2=O)C2=NC3(CCN(CC(C)C)CC3)NC2=C(NC(=O)/C(C)=C\C=C\[C@H](C)[C@H](O)[C@@H](C)[C@@H](O)[C@@H](C)[C@H](OC(=O)CC(=O)NCCCN(C)C)[C@@H]1C)C4=O [Compound 29]
[1]; [4]
  MIC: 1 µg/mL
[2]; HUMC1 strain, RPMI + 10% FCS
  MIC: ≤ 0.002 µg/mL
[3]
  MIC: 0.03 µg/mL (≈ 0.0308 µM)

## CO[C@H]1/C=C/O[C@@]2(C)Oc3c(C)c(O)c4c(c3C2=O)C2=NC3(CCN(CC(C)C)CC3)NC2=C(NC(=O)/C(C)=C\C=C\[C@H](C)[C@H](O)[C@@H](C)[C@@H](O)[C@@H](C)[C@H](OC(=O)CC(=O)NCCN(C)C)[C@@H]1C)C4=O [Compound 30]
[1]; [4]
  MIC: 1 µg/mL
[2]; HUMC1 strain, RPMI + 10% FCS
  MIC: ≤ 0.002 µg/mL
[3]
  MIC: 0.03 µg/mL (≈ 0.0312 µM)

## CO[C@H]1/C=C/O[C@@]2(C)Oc3c(C)c(O)c4c(c3C2=O)C2=NC3(CCN(CC(C)C)CC3)NC2=C(NC(=O)/C(C)=C\C=C\[C@H](C)[C@H](O)[C@@H](C)[C@@H](O)[C@@H](C)[C@H](OC(=O)CC(=O)OCCc2ccccc2)[C@@H]1C)C4=O [Compound 31]
[1]; [4]
  MIC: 4 µg/mL
[2]; HUMC1 strain, RPMI + 10% FCS
  MIC: 0.125 µg/mL
[3]
  MIC: 1 µg/mL (≈ 1 µM)

## COCCCNC(=O)CC(=O)O[C@H]1[C@H](C)[C@H](O)[C@H](C)[C@@H](O)[C@@H](C)/C=C/C=C(/C)C(=O)NC2=C3NC4(CCN(CC(C)C)CC4)N=C3c3c(c(O)c(C)c4c3C(=O)[C@@](C)(O/C=C/[C@H](OC)[C@H]1C)O4)C2=O [Compound 34]
[1]; [4]
  MIC: 1 µg/mL
[2]; HUMC1 strain, RPMI + 10% FCS
  MIC: ≤ 0.002 µg/mL
[3]
  MIC: 0.016 µg/mL (≈ 0.0166 µM)

## CO[C@H]1/C=C/O[C@@]2(C)Oc3c(C)c(O)c4c(c3C2=O)C2=NC3(CCN(CC(C)C)CC3)NC2=C(NC(=O)/C(C)=C\C=C\[C@H](C)[C@H](O)[C@@H](C)[C@@H](O)[C@@H](C)[C@H](OC(=O)CC(=O)Nc2ccc(CN3CCN(C)CC3)cc2)[C@@H]1C)C4=O [Compound 36]
[1]; [4]
  MIC: 1 µg/mL
[2]; HUMC1 strain, RPMI + 10% FCS
  MIC: ≤ 0.002 µg/mL
[3]
  MIC: 0.016 µg/mL (≈ 0.0148 µM)

## CO[C@H]1/C=C/O[C@@]2(C)Oc3c(C)c(O)c4c(c3C2=O)C2=NC3(CCN(CC(C)C)CC3)NC2=C(NC(=O)/C(C)=C\C=C\[C@H](C)[C@H](O)[C@@H](C)[C@@H](O)[C@@H](C)[C@H](OC(=O)C(C)C(=O)N2CCCCC2)[C@@H]1C)C4=O (stereo partly drawn) [Compound 37]
[1]; [4]
  MIC: 0.5 µg/mL
[2]; HUMC1 strain, RPMI + 10% FCS
  MIC: ≤ 0.002 µg/mL
[3]
  MIC: 0.03 µg/mL (≈ 0.0309 µM)

## CO[C@H]1/C=C/O[C@@]2(C)Oc3c(C)c(O)c4c(c3C2=O)C2=NC3(CCN(CC(C)C)CC3)NC2=C(NC(=O)/C(C)=C\C=C\[C@H](C)[C@H](O)[C@@H](C)[C@@H](O)[C@@H](C)[C@H](OC(=O)C(C)C(=O)N2CCN(c3ccccc3S(N)(=O)=O)CC2)[C@@H]1C)C4=O (stereo partly drawn) [Compound 38]
[1]; [4]
  MIC: 0.5 µg/mL
[2]; HUMC1 strain, RPMI + 10% FCS
  MIC: 0.008 µg/mL
[3]
  MIC: 0.25 µg/mL (≈ 0.222 µM)

## CO[C@H]1/C=C/O[C@@]2(C)Oc3c(C)c(O)c4c(c3C2=O)C2=NC3(CCN(CC(C)C)CC3)NC2=C(NC(=O)/C(C)=C\C=C\[C@H](C)[C@H](O)[C@@H](C)[C@@H](O)[C@@H](C)[C@H](OC(=O)C(C)C(=O)N2CCC(Nc3ccccc3)CC2)[C@@H]1C)C4=O (stereo partly drawn) [Compound 41]
[1]; ATCC19977, read-out: MIC M. abscessus
  MIC: 0.5 µg/mL
[2]
  MIC: 0.016 µg/mL
[3]
  MIC: 0.5 µg/mL (≈ 0.47 µM)

## CO[C@H]1/C=C/O[C@@]2(C)Oc3c(C)c(O)c4c(c3C2=O)C2=NC3(CCN(CC(C)C)CC3)NC2=C(NC(=O)/C(C)=C\C=C\[C@H](C)[C@H](O)[C@@H](C)[C@@H](O)[C@@H](C)[C@H](OC(=O)C(C)C(=O)N2CCC(n3c(=O)[nH]c5ccccc53)CC2)[C@@H]1C)C4=O (stereo partly drawn) [Compound 42]
[1]; [4]
  MIC: 0.5 µg/mL
[2]; HUMC1 strain, RPMI + 10% FCS
  MIC: 0.03 µg/mL
[3]
  MIC: 0.5 µg/mL (≈ 0.453 µM)

## CO[C@H]1/C=C/O[C@@]2(C)Oc3c(C)c(O)c4c(c3C2=O)C2=NC3(CCN(CC(C)C)CC3)NC2=C(NC(=O)/C(C)=C\C=C\[C@H](C)[C@H](O)[C@@H](C)[C@@H](O)[C@@H](C)[C@H](OC(=O)C(C)C(=O)N2CCc3[nH]c5ccccc5c3C2)[C@@H]1C)C4=O (stereo partly drawn) [Compound 43]
[1]; [4]
  MIC: 0.5 µg/mL
[2]; HUMC1 strain, RPMI + 10% FCS
  MIC: 0.06 µg/mL
[3]
  MIC: 0.5 µg/mL (≈ 0.472 µM)

## CO[C@H]1/C=C/O[C@@]2(C)Oc3c(C)c(O)c4c(c3C2=O)C2=NC3(CCN(CC(C)C)CC3)NC2=C(NC(=O)/C(C)=C\C=C\[C@H](C)[C@H](O)[C@@H](C)[C@@H](O)[C@@H](C)[C@H](OC(=O)CC(=O)OC2CCN(C)CC2)[C@@H]1C)C4=O [Compound 45]
[1]; [4]
  MIC: 0.5 µg/mL
[2]; HUMC1 strain, RPMI + 10% FCS
  MIC: 0.004 µg/mL
[3]
  MIC: 0.06 µg/mL (≈ 0.0607 µM)

## CO[C@H]1/C=C/O[C@@]2(C)Oc3c(C)c(O)c4c(c3C2=O)C2=NC3(CCN(CC(C)C)CC3)NC2=C(NC(=O)/C(C)=C\C=C\[C@H](C)[C@H](O)[C@@H](C)[C@@H](O)[C@@H](C)[C@H](OC(=O)CC(=O)N2CCC(n3c(=O)[nH]c5ccccc53)CC2)[C@@H]1C)C4=O [Compound 46]
[1]; [4]
  MIC: 0.5 µg/mL
[2]; HUMC1 strain, RPMI + 10% FCS
  MIC: 0.03 µg/mL
[3]
  MIC: 0.25 µg/mL (≈ 0.229 µM)
